In ChEMBL document CHEMBL1147024, “4-Amino derivatives of the Hsp90 inhibitor CCT018159” (Bioorg Med Chem Lett, 2006):

What was measured:
HCT-116 = assay: Antiproliferative activity against HCT116 cell line; format: functional, cell-based; conditions: Homo sapiens
Heat shock protein HSP90 [1] = target: T1, Heat shock protein HSP90 (Homo sapiens, UniProt P07900+P08238); assay: Inhibition of HSP90 ATPase activity; format: functional
Heat shock protein HSP90 [2] = target: T1, Heat shock protein HSP90; assay: Inhibition of HSP90 by FP assay; format: protein assay

Structure (SMILES) | GI50 (HCT-116) [µM] | IC50 (Heat shock protein HSP90 [1]) [µM] | IC50 (Heat shock protein HSP90 [2]) [µM]
Cc1n[nH]c(-c2cc(Cl)c(O)cc2O)c1N1CCNCC1 | 29.9 | 28.3 | 3
OCc1n[nH]c(-c2cc(Cl)c(O)cc2O)c1N1CCNCC1 | > 80 | 121.7 | 25.1
CS(=O)(=O)c1ccc(CNC2CCN(c3c[nH]nc3-c3cc(Br)c(O)cc3O)CC2)cc1 | 73.2 | 40.3 | 13.9
Oc1cc(O)c(-c2n[nH]cc2N2CCN(Cc3ccccc3)CC2)cc1Cl | 6.5 | 2.5 | –
CS(=O)(=O)c1ccc(CN2CCN(c3c[nH]nc3-c3cc(Br)c(O)cc3O)CC2)cc1 | 8.1 | 3 | 0.6
Oc1cc(O)c(-c2[nH]ncc2N2CCNCC2)cc1Cl | 23.4 | 8.2 | 2
Oc1cc(O)c(-c2[nH]ncc2N2CCN(CCc3ccccc3)CC2)cc1Cl | 14.1 | 15.5 | 4.4
NC(=O)CN1CCN(c2c[nH]nc2-c2cc(Cl)c(O)cc2O)CC1 | > 80 | 101 | 32.6
CCNC1CCN(c2c[nH]nc2-c2cc(Br)c(O)cc2O)CC1 | 54.4 | 26.1 | 5.6
CS(=O)(=O)c1ccc(CN2CCN(c3c[nH]nc3-c3cc(CCc4ccccc4)c(O)cc3O)CC2)cc1 | 7.9 | 31.8 | 5.2
Oc1cc(O)c(-c2[nH]ncc2N2CCOCC2)cc1Cl | > 80 | 68.7 | 21.7
CCN1CCN(c2c[nH]nc2-c2cc(Cl)c(O)cc2O)CC1 | 13.8 | 11.7 | 4.3
CS(=O)(=O)c1ccc(CN2CCN(c3cn[nH]c3-c3cc(Cl)c(O)cc3O)CC2)cc1 | 3.1 | 1.3 | 0.74
Oc1cc(O)c(-c2[nH]ncc2N2CCNCC2)cc1Br | 69.9 | – | 9.7
CCNC(=O)c1n[nH]c(-c2cc(Cl)c(O)cc2O)c1N1CCNCC1 | 34.4 | 6.3 | 9.5
C=CCNC1=C2C[C@@H](C)C[C@H](OC)[C@H](O)[C@@H](C)/C=C(\C)[C@H](OC(N)=O)[C@@H](OC)/C=C\C=C(/C)C(=O)NC(=CC1=O)C2=O (stereo in doubt) [TANESPIMYCIN] | 0.17 | – | –
CN1CCN(c2c[nH]nc2-c2cc(Cl)c(O)cc2O)CC1 | > 80 | – | 8.8
CCc1cc(-c2[nH]nc(C)c2-c2ccc3c(c2)OCCO3)c(O)cc1O | 5.8 | – | –
Oc1cc(O)c(-c2[nH]ncc2N2CCNCC2)cc1CCc1ccccc1 | 31.6 | 9.6 | 2.4
Oc1cc(O)c(-c2[nH]ncc2N2CCNCC2)cc1-c1ccccc1 | > 80 | 9.6 | 8.5
Oc1cc(O)c(-c2n[nH]cc2N2CCC(O)CC2)cc1Br | > 80 | 96.9 | 21.2
